Test results published in ChEMBL document CHEMBL1201862, “PubChem BioAssay data set” (2004).
Where “and” joins values, the source holds several entries; their conditions need not be identical. Identical values can stand only once.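 Interpolation was linear, between the two tested concentrations surrounding the appropriate level; five concentrations were tested over 48 hours in 96-well plates. GI50 is the concentration that inhibits growth by half.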 Calls of active or inactive are those of the source. Cut-off read from the data, not from the text of the source: active = GI50 up to about 1.1 µM and inactive = higher.

Columns and labels:
Experiment in all cases: DTP human tumour cell line panel, 48 h
NCI/ADR-RES = tested on: NCI/ADR-RES
SF-539 = tested on: SF-539
SN12C = tested on: SN12C
RPMI-8226 = tested on: RPMI-8226
Hs-578T = tested on: Hs-578T
HCC 2998 = tested on: HCC 2998
Malme-3M = tested on: Malme-3M
A498 = tested on: A498
UO-31 = tested on: UO-31
MDA-N = tested on: MDA-N
OVCAR-5 = tested on: OVCAR-5
TK-10 = tested on: TK-10
SK-MEL-2 = tested on: SK-MEL-2
SNB-75 = tested on: SNB-75
MOLT-4 = tested on: MOLT-4
SW-620 = tested on: SW-620
SK-OV-3 = tested on: SK-OV-3
T47D = tested on: T47D

Structure (SMILES): CN(C)c1ccc(/C=c2\c3ccccc3n3c2cc(-c2ccccc2)[n+]3C)cc1
- GI50 (NCI/ADR-RES): 4.45 µM (inactive)
- GI50 (SF-539): 0.0406 µM (active)
- GI50 (SN12C): 0.149 µM (active)
- GI50 (RPMI-8226): 0.0172 µM (active)
- GI50 (Hs-578T): 0.0335 µM (active)
- GI50 (HCC 2998): 1.35 µM (inactive)
- GI50 (Malme-3M): 0.153 µM (active)
- GI50 (A498): 1.42 µM (inactive)
- GI50 (UO-31): 0.383 µM (active)
- GI50 (MDA-N): 0.144 µM (active)
- GI50 (OVCAR-5): 0.67 µM (active)
- GI50 (TK-10): 0.624 µM (active)
- GI50 (SK-MEL-2): 0.175 µM (active)
- GI50 (SNB-75): 0.061 µM (active)
- GI50 (MOLT-4): 0.0914 µM (active)
- GI50 (SW-620): 0.119 µM (active)
- GI50 (SK-OV-3): 0.303 µM (active)

Structure (SMILES): O=[N+]([O-])c1ccccc1CSc1nc(O)c2nc[nH]c2n1
- GI50 (NCI/ADR-RES): > 100 µM (inactive)
- GI50 (SF-539): > 100 µM (inactive)
- GI50 (SN12C): > 100 µM (inactive) and 66.4 µM (inactive)
- GI50 (RPMI-8226): > 100 µM (inactive) and 89.3 µM (inactive)
- GI50 (Hs-578T): 52.4 µM (inactive)
- GI50 (Malme-3M): > 100 µM (inactive)
- GI50 (A498): > 100 µM (inactive)
- GI50 (MDA-N): > 100 µM (inactive)
- GI50 (T47D): > 100 µM (inactive) and 75.7 µM (inactive)
- GI50 (OVCAR-5): > 100 µM (inactive) and 92 µM (inactive)
- GI50 (TK-10): > 100 µM (inactive) and 79.8 µM (inactive)
- GI50 (SK-MEL-2): > 100 µM (inactive)
- GI50 (MOLT-4): > 100 µM (inactive)
- GI50 (SW-620): > 100 µM (inactive)
- GI50 (SK-OV-3): 63.8 µM (inactive)

Structure (SMILES): CCOP(=O)(/C=C\n1ccc(=O)[nH]c1=O)OCC
- GI50 (NCI/ADR-RES): > 100 µM (inactive)
- GI50 (SF-539): > 100 µM (inactive)
- GI50 (SN12C): > 100 µM (inactive)
- GI50 (RPMI-8226): > 100 µM (inactive)
- GI50 (A498): > 100 µM (inactive)
- GI50 (MDA-N): > 100 µM (inactive)
- GI50 (T47D): > 100 µM (inactive)
- GI50 (OVCAR-5): > 100 µM (inactive)
- GI50 (TK-10): > 100 µM (inactive)
- GI50 (SK-MEL-2): > 100 µM (inactive)
- GI50 (SNB-75): > 100 µM (inactive)
- GI50 (MOLT-4): > 100 µM (inactive)
- GI50 (SW-620): > 100 µM (inactive)
- GI50 (SK-OV-3): > 100 µM (inactive)

Structure (SMILES): CC(C)C1=C(Cc2ccccc2)C(=O)O/C1=C\c1ccc(O)c(Cl)c1
- GI50 (NCI/ADR-RES): > 10 µM (inactive)
- GI50 (SF-539): 18.6 µM (inactive)
- GI50 (SN12C): 16.9 µM (inactive)
- GI50 (RPMI-8226): 12.4 µM (inactive)
- GI50 (Hs-578T): 13.6 µM (inactive)
- GI50 (HCC 2998): 14.6 µM (inactive)
- GI50 (Malme-3M): 15.8 µM (inactive)
- GI50 (A498): 17.6 µM (inactive)
- GI50 (UO-31): 14.4 µM (inactive)
- GI50 (MDA-N): 16.5 µM (inactive)
- GI50 (OVCAR-5): 18.4 µM (inactive)
- GI50 (TK-10): 17.7 µM (inactive)
- GI50 (SNB-75): 16.9 µM (inactive)
- GI50 (MOLT-4): 10.9 µM (inactive)
- GI50 (SW-620): 19.1 µM (inactive)
- GI50 (SK-OV-3): 19.5 µM (inactive)

Structure (SMILES): O=C1c2ccccc2-c2cc3ccccc3c(=O)n21
- GI50 (NCI/ADR-RES): > 100 µM (inactive)
- GI50 (SF-539): > 100 µM (inactive)
- GI50 (SN12C): > 100 µM (inactive)
- GI50 (RPMI-8226): 71.1 µM (inactive)
- GI50 (Hs-578T): > 100 µM (inactive)
- GI50 (HCC 2998): > 100 µM (inactive)
- GI50 (UO-31): 49.1 µM (inactive)
- GI50 (MDA-N): > 100 µM (inactive)
- GI50 (T47D): > 100 µM (inactive)
- GI50 (OVCAR-5): > 100 µM (inactive)
- GI50 (TK-10): > 100 µM (inactive)
- GI50 (SK-MEL-2): > 100 µM (inactive)
- GI50 (SNB-75): > 100 µM (inactive)
- GI50 (SW-620): > 100 µM (inactive)

Structure (SMILES): COc1ccc(-c2cc(O)c3nc4ccccc4n3c2)cc1
- GI50 (NCI/ADR-RES): > 100 µM (inactive)
- GI50 (SF-539): > 100 µM (inactive)
- GI50 (SN12C): > 100 µM (inactive)
- GI50 (RPMI-8226): > 100 µM (inactive)
- GI50 (Hs-578T): 85.7 µM (inactive)
- GI50 (Malme-3M): > 100 µM (inactive)
- GI50 (A498): > 100 µM (inactive)
- GI50 (UO-31): > 100 µM (inactive)
- GI50 (MDA-N): > 100 µM (inactive)
- GI50 (TK-10): > 100 µM (inactive)
- GI50 (SNB-75): > 100 µM (inactive)
- GI50 (MOLT-4): > 100 µM (inactive)
- GI50 (SW-620): > 100 µM (inactive)

Structure (SMILES): c1ccc2cc3c(NC4=NCCO4)cccc3cc2c1
- GI50 (NCI/ADR-RES): 75.2 µM (inactive)
- GI50 (SF-539): 97.5 µM (inactive)
- GI50 (SN12C): 58.5 µM (inactive)
- GI50 (RPMI-8226): 39 µM (inactive)
- GI50 (Hs-578T): 41.8 µM (inactive)
- GI50 (Malme-3M): 36.1 µM (inactive)
- GI50 (A498): 67.6 µM (inactive)
- GI50 (UO-31): 53 µM (inactive)
- GI50 (MDA-N): 1.79 µM (inactive)
- GI50 (OVCAR-5): > 100 µM (inactive)
- GI50 (TK-10): 86.9 µM (inactive)
- GI50 (SK-MEL-2): 46.1 µM (inactive)
- GI50 (SNB-75): 24.8 µM (inactive)
- GI50 (MOLT-4): 31.1 µM (inactive)
- GI50 (SW-620): > 100 µM (inactive)
- GI50 (SK-OV-3): > 100 µM (inactive)
